Assay results: PubChem BioAssay (NCI)
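Cultured in 96-well plates, cells were exposed to test compound for 48 hours across five concentrations. Definition used: TGI = concentration required for complete inhibition of growth.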

Columns and labels:
Assay in all cases: NCI tumour cell line growth inhibition, 48 h
[1] = system: 786-0 renal
[2] = system: A498 renal
[3] = system: A549 NSCLC
[4] = system: ACHN renal
[5] = system: BT-549 breast
[6] = system: CAKI-1 renal
[7] = system: CCRF-CEM leukemia
[8] = system: COLO 205 colon
[9] = system: DU-145 prostate
[10] = system: EKVX NSCLC
[11] = system: HCC-2998 colon
[12] = system: HCT-116 colon
[13] = system: HCT-15 colon
[14] = system: HL-60(TB) leukemia
[15] = system: HOP-62 NSCLC
[16] = system: HOP-92 NSCLC
[17] = system: HT29 colon
[18] = system: IGROV1 ovarian
[19] = system: K-562 leukemia
[20] = system: KM12 colon
[21] = system: LOX IMVI melanoma
[22] = system: M14 melanoma
[23] = system: MCF7 breast
[24] = system: MDA-MB-231 breast
[25] = system: MDA-MB-435
[26] = system: MDA-N
[27] = system: MOLT-4 leukemia
[28] = system: NCI-H226 lung
[29] = system: NCI-H23 lung
[30] = system: NCI-H522 lung
[31] = system: NCI/ADR-RES ovarian
[32] = system: OVCAR-3 ovarian
[33] = system: OVCAR-4 ovarian
[34] = system: OVCAR-5 ovarian
[35] = system: OVCAR-8 ovarian
[36] = system: PC-3 prostate
[37] = system: RPMI-8226 leukemia
[38] = system: SF-295 CNS
[39] = system: SF-539 CNS
[40] = system: SK-MEL-2 melanoma
[41] = system: SK-MEL-28 melanoma
[42] = system: SK-MEL-5 melanoma
[43] = system: SK-OV-3 ovarian
[44] = system: SN12C renal
[45] = system: SNB-19 CNS
[46] = system: SR leukemia
[47] = system: SW-620 colon
[48] = system: T-47D breast
[49] = system: TK-10 renal
[50] = system: U251 CNS
[51] = system: UACC-257 melanoma
[52] = system: UACC-62 melanoma
[53] = system: UO-31 renal
[54] = system: MALME-3M melanoma
[55] = system: NCI-H460 lung
[56] = system: RXF 393 renal
[57] = system: SF-268 CNS
[58] = system: SNB-75 CNS

With O=c1[nH]cnc2c1cnn2Cc1cn(COCC(O)CO)nn1 (configuration not stated) the TGI [1] was > 100 µM, the TGI [2] was > 100 µM and the TGI [3] was > 100 µM. For the same compound, the TGI [4] was > 100 µM, the TGI [5] was > 100 µM and the TGI [6] was > 100 µM. The TGI [7] was > 100 µM, the TGI [8] was > 100 µM and the TGI [9] was > 100 µM. The TGI [10] was > 100 µM, the TGI [11] was > 100 µM and the TGI [12] was > 100 µM. For the same compound, the TGI [13] was > 100 µM, the TGI [14] was > 100 µM and the TGI [15] was > 100 µM. The TGI [16] was > 100 µM, the TGI [17] was > 100 µM and the TGI [18] was > 100 µM. For the same compound, the TGI [19] was > 100 µM, the TGI [20] was > 100 µM and the TGI [21] was > 100 µM. For the same compound, the TGI [22] was > 100 µM, the TGI [23] was > 100 µM and the TGI [24] was > 100 µM. The TGI [25] was > 100 µM, the TGI [26] was > 100 µM and the TGI [27] was > 100 µM. The TGI [28] was > 100 µM, the TGI [29] was > 100 µM and the TGI [30] was 62.7 µM. For the same compound, the TGI [31] was > 100 µM, the TGI [32] was > 100 µM and the TGI [33] was > 100 µM. The TGI [34] was > 100 µM, the TGI [35] was > 100 µM and the TGI [36] was > 100 µM. The TGI [37] was > 100 µM, the TGI [38] was > 100 µM and the TGI [39] was > 100 µM. The TGI [40] was > 100 µM, the TGI [41] was > 100 µM and the TGI [42] was > 100 µM. For the same compound, the TGI [43] was > 100 µM, the TGI [44] was > 100 µM and the TGI [45] was > 100 µM. The TGI [46] was > 100 µM, the TGI [47] was > 100 µM and the TGI [48] was > 100 µM. For the same compound, the TGI [49] was > 100 µM, the TGI [50] was > 100 µM and the TGI [51] was > 100 µM. For the same compound, the TGI [52] was > 100 µM and the TGI [53] was > 100 µM.
COc1ccc(-c2nc3cc(F)ccc3s2)cc1O was tested, and the TGI [1] was 55.1 µM, the TGI [2] was 66.3 µM and the TGI [3] was > 100 µM. For the same compound, the TGI [4] was > 100 µM, the TGI [5] was 54.1 µM and the TGI [6] was 64 µM. For the same compound, the TGI [7] was > 100 µM, the TGI [8] was 94.4 µM and the TGI [9] was > 100 µM. The TGI [10] was 60.8 µM, the TGI [11] was 12.7 µM and the TGI [12] was > 100 µM. The TGI [13] was > 100 µM, the TGI [14] was 66.1 µM and the TGI [17] was > 100 µM. The TGI [18] was 81.3 µM, the TGI [19] was > 100 µM and the TGI [20] was > 100 µM. For the same compound, the TGI [21] was 79.3 µM, the TGI [22] was > 100 µM and the TGI [54] was > 100 µM. The TGI [23] was > 100 µM, the TGI [24] was > 100 µM and the TGI [25] was > 100 µM. For the same compound, the TGI [26] was > 100 µM, the TGI [27] was > 100 µM and the TGI [28] was > 100 µM. The TGI [29] was > 100 µM, the TGI [55] was > 100 µM and the TGI [30] was 42.1 µM. The TGI [31] was > 100 µM, the TGI [32] was > 100 µM and the TGI [33] was > 100 µM. The TGI [34] was > 100 µM, the TGI [35] was > 100 µM and the TGI [36] was > 100 µM. For the same compound, the TGI [37] was 77.1 µM, the TGI [56] was > 100 µM and the TGI [57] was > 100 µM. For the same compound, the TGI [38] was 49 µM, the TGI [39] was > 100 µM and the TGI [40] was 78 µM. For the same compound, the TGI [41] was > 100 µM, the TGI [42] was 59 µM and the TGI [43] was > 100 µM. The TGI [44] was > 100 µM, the TGI [45] was > 100 µM and the TGI [46] was 47.7 µM. For the same compound, the TGI [47] was > 100 µM, the TGI [48] was 46.9 µM and the TGI [49] was 70 µM. The TGI [50] was > 100 µM, the TGI [51] was 61.8 µM and the TGI [52] was > 100 µM. For the same compound, the TGI [53] was > 100 µM.
For NCc1ccc(O)c(O)c1, the TGI [1] was > 100 µM, the TGI [2] was > 100 µM and the TGI [3] was > 100 µM. For the same compound, the TGI [4] was > 100 µM, the TGI [5] was > 100 µM and the TGI [6] was > 100 µM. The TGI [7] was > 100 µM, the TGI [8] was > 100 µM and the TGI [9] was > 100 µM. For the same compound, the TGI [10] was > 100 µM, the TGI [11] was > 100 µM and the TGI [12] was > 100 µM. For the same compound, the TGI [13] was > 100 µM, the TGI [14] was 41 µM and the TGI [15] was > 100 µM. The TGI [16] was > 100 µM, the TGI [17] was > 100 µM and the TGI [18] was > 100 µM. The TGI [19] was > 100 µM, the TGI [20] was > 100 µM and the TGI [21] was > 100 µM. The TGI [22] was > 100 µM, the TGI [23] was > 100 µM and the TGI [24] was > 100 µM. The TGI [25] was > 100 µM, the TGI [26] was > 100 µM and the TGI [27] was > 100 µM. The TGI [28] was > 100 µM, the TGI [29] was > 100 µM and the TGI [55] was > 100 µM. The TGI [31] was > 100 µM, the TGI [32] was > 100 µM and the TGI [33] was > 100 µM. The TGI [34] was > 100 µM, the TGI [35] was > 100 µM and the TGI [36] was > 100 µM. The TGI [37] was > 100 µM, the TGI [56] was > 100 µM and the TGI [38] was > 100 µM. The TGI [39] was > 100 µM, the TGI [40] was > 100 µM and the TGI [41] was > 100 µM. For the same compound, the TGI [42] was > 100 µM, the TGI [43] was > 100 µM and the TGI [44] was > 100 µM. The TGI [45] was > 100 µM, the TGI [58] was > 100 µM and the TGI [46] was > 100 µM. The TGI [47] was > 100 µM, the TGI [48] was > 100 µM and the TGI [50] was > 100 µM. For the same compound, the TGI [51] was > 100 µM, the TGI [52] was > 100 µM and the TGI [53] was > 100 µM.
